The source made the active and inactive calls.
Tests used:
Type in all cases: functional, cell-based
[1] = tested on: Calvarial osteoblast; test: Induction of osteoblast differentiation in mouse calvarial osteoblasts assessed as increase in ALP activity at 0.000001 to 1 uM by spectrophotometric analysis; details: dose lower 1e-06 µM, dose upper 1.0 µM
[2] = tested on: Calvarial osteoblast; test: Cytoprotective activity against serum deprivation-induced apoptosis in mouse calvarial osteoblasts assessed as reduction in apoptotic cells at 1 to 100 pM by Annexin/PI staining based flow cytometric analysis; details: dose 1-100 pM
[3] = tested on: Calvarial osteoblast; test: Induction of osteoblast differentiation in mouse calvarial osteoblasts assessed as increase in BMP2 mRNA expression at 1 to 100 pM after 48 hrs by qPCR analysis; details: dose 1-100 pM
[4] = tested on: Calvarial osteoblast; test: Induction of osteoblast differentiation in mouse calvarial osteoblasts assessed as increase in RUNX2 protein expression at 1 to 100 pM after 48 hrs by western blot analysis; details: dose 1-100 pM
[5] = tested on: Calvarial osteoblast; test: Induction of osteoblast differentiation in mouse calvarial osteoblasts assessed as increase in cell viability at 0.000001 to 1 uM by MTT assay; details: dose lower 1e-06 µM, dose upper 1.0 µM
[6] = tested on: Calvarial osteoblast; test: Induction of osteoblast differentiation in mouse calvarial osteoblasts assessed as increase in Type-1 collagen mRNA expression at 1 to 100 pM after 48 hrs by qPCR analysis; details: dose 1-100 pM
[7] = tested on: Calvarial osteoblast; test: Cytoprotective activity against serum deprivation-induced apoptosis in mouse calvarial osteoblasts assessed as increase in Bcl-2 protein expression at 1 to 100 pM by western blot analysis; details: dose 1-100 pM
[8] = tested on: Calvarial osteoblast; test: Induction of osteoblast differentiation in mouse calvarial osteoblasts assessed as increase in BMP2 protein expression at 1 to 100 pM after 48 hrs by western blot analysis; details: dose 1-100 pM
[9] = tested on: Calvarial osteoblast; test: Cytoprotective activity against serum deprivation-induced apoptosis in mouse calvarial osteoblasts assessed as reduction in BAX protein expression at 1 to 100 pM by western blot analysis; details: dose 1-100 pM
[10] = tested on: HBMSC; test: Induction of new bone formation in BMSC cells (unknown origin) assessed as increase in formation of mineralized nodules at 1 to 100 pM; details: Homo sapiens, dose 1-100 pM
[11] = tested on: Calvarial osteoblast; test: Induction of new bone formation in mouse calvarial osteoblasts assessed as increase in intracellular calcium level at 1 to 100 pM by Fluo-4AM dye based assay; details: dose 1-100 pM
[12] = tested on: Calvarial osteoblast; test: Induction of osteoblast differentiation in mouse calvarial osteoblasts assessed as increase in RUNX-2 mRNA expression at 1 to 100 pM after 48 hrs by qPCR analysis; details: dose 1-100 pM
[13] = tested on: Calvarial osteoblast; test: Induction of osteoblast differentiation in mouse calvarial osteoblasts assessed as increase in Type-1 collagen protein expression at 1 to 100 pM after 48 hrs by western blot analysis; details: dose 1-100 pM

Measured: Activity

CC1(C)C=Cc2c(ccc(C(=O)/C=C/c3ccc(Cl)cc3)c2O)O1
active: [1]

CC1(C)C=Cc2c(ccc(C3=NN(c4ccccc4)C(c4ccc(Cl)cc4)C3)c2O)O1 (stereo not drawn)
active: [1]

CC1(C)C=Cc2ccc(O)c(C3=NNC(c4ccc(Cl)cc4)C3)c2O1 (stereo not drawn)
active: [1] | [2] | [3] | [4] | [5] | [6] | [7] | [8] | [9] | [10] | [11] | [12] | [13]

CC1(C)C=Cc2ccc(O)c(-c3cc(-c4ccc(Cl)cc4)on3)c2O1
active: [1]

CC(=O)N1N=C(c2c(O)ccc3c2OC(C)(C)C=C3)CC1c1ccc(Cl)cc1 (stereo not drawn)
active: [1]

CC(C)=CCC1(C)C=Cc2ccc(O)c(C(=O)/C=C/c3ccc(Cl)cc3)c2O1 (stereo not drawn)
active: [1]

Source: ChEMBL document CHEMBL5131465, “Pyrazoline analogues: Design, synthesis, and evaluation of anti-osteoporosis activity” (Bioorg Med Chem Lett, 2022)
